According to the NIST ThermoML archive (doi:10.1021/acs.jced.7b00503):
Numbers after ± are expanded uncertainties.

Test: wn = mass fraction of the nth substance listed
Conditions: Pendant drop shape

[Br-].[K+] [potassium bromide] + O
surface tension liquid-gas [mN/m]
Conditions | w1 = 0.05 | w1 = 0.1 | w1 = 0.15 | w1 = 0.2 | w1 = 0.25 | w1 = 0.3 | w1 = 0.35 | w1 = 0.4
293.15 K | 73.93 ± 0.85 | 74.51 ± 0.85 | 74.9 ± 0.85 | 75.3 ± 0.86 | 76.16 ± 0.86 | 77.43 ± 0.87 | 78.85 ± 0.88 | 80.3 ± 0.89
303.15 K | 72.42 ± 0.84 | 73.05 ± 0.84 | 73.27 ± 0.85 | 73.82 ± 0.85 | 74.82 ± 0.86 | 76.15 ± 0.86 | 77.51 ± 0.87 | 78.92 ± 0.88
313.15 K | 70.85 ± 0.83 | 71.44 ± 0.84 | 71.74 ± 0.84 | 72.29 ± 0.84 | 73.39 ± 0.85 | 74.72 ± 0.86 | 76.17 ± 0.86 | 77.58 ± 0.87
323.15 K | 69.14 ± 0.82 | 69.86 ± 0.83 | 70.21 ± 0.83 | 70.82 ± 0.83 | 71.86 ± 0.84 | 73.23 ± 0.85 | 74.64 ± 0.86 | 76.06 ± 0.86
333.15 K | 67.31 ± 0.82 | 67.95 ± 0.82 | 68.49 ± 0.82 | 69.25 ± 0.83 | 70.24 ± 0.83 | 71.64 ± 0.84 | 73.11 ± 0.85 | 74.53 ± 0.86
343.15 K | 65.4 ± 0.81 | 66.14 ± 0.81 | 66.77 ± 0.81 | 67.46 ± 0.82 | 68.61 ± 0.82 | 69.93 ± 0.83 | 71.39 ± 0.84 | 72.87 ± 0.85
353.15 K | 63.44 ± 0.8 | 64.11 ± 0.8 | 64.86 ± 0.8 | 65.73 ± 0.81 | 66.79 ± 0.82 | 68.15 ± 0.82 | 69.57 ± 0.83 | 71.22 ± 0.84

[Cl-].[K+] [potassium chloride] + O
surface tension liquid-gas [mN/m]
Conditions | w1 = 0.025 | w1 = 0.05 | w1 = 0.075 | w1 = 0.1 | w1 = 0.125 | w1 = 0.15 | w1 = 0.175 | w1 = 0.2
293.15 K | 73.32 ± 0.84 | 73.89 ± 0.85 | 74.52 ± 0.85 | 75.13 ± 0.85 | 75.61 ± 0.86 | 76.15 ± 0.86 | 77.1 ± 0.87 | 77.99 ± 0.87
303.15 K | 71.83 ± 0.84 | 72.44 ± 0.84 | 73.09 ± 0.84 | 73.68 ± 0.85 | 74.44 ± 0.85 | 75.18 ± 0.86 | 75.74 ± 0.86 | 76.32 ± 0.86
313.15 K | 70.27 ± 0.83 | 71.05 ± 0.83 | 71.66 ± 0.84 | 72.24 ± 0.84 | 72.88 ± 0.84 | 73.56 ± 0.85 | 74.18 ± 0.85 | 74.82 ± 0.85
323.15 K | 68.58 ± 0.82 | 69.17 ± 0.82 | 69.84 ± 0.83 | 70.49 ± 0.83 | 71.12 ± 0.84 | 71.74 ± 0.84 | 72.36 ± 0.84 | 73 ± 0.85
333.15 K | 66.95 ± 0.81 | 67.7 ± 0.82 | 68.21 ± 0.82 | 68.76 ± 0.82 | 69.37 ± 0.83 | 69.83 ± 0.83 | 70.47 ± 0.83 | 71.1 ± 0.84
343.15 K | 65 ± 0.8 | 65.55 ± 0.81 | 66.46 ± 0.81 | 67.35 ± 0.82 | 67.94 ± 0.82 | 68.47 ± 0.82 | 69.17 ± 0.83 | 69.81 ± 0.83
353.15 K | 63.25 ± 0.8 | 63.91 ± 0.8 | 64.64 ± 0.8 | 65.37 ± 0.81 | 66.05 ± 0.81 | 66.73 ± 0.81 | 67.35 ± 0.82 | 68.12 ± 0.82

[I-].[K+] [potassium iodide] + O
surface tension liquid-gas [mN/m]
Conditions | 293.15 K | 298.15 K | 303.15 K | 313.15 K | 323.15 K | 333.15 K
w1 = 0.01 | 73.24 ± 0.84 | 72.53 ± 0.84 | 71.81 ± 0.84 | 70.45 ± 0.83 | 68.95 ± 0.82 | 67.52 ± 0.82
w1 = 0.02 | 73.65 ± 0.85 | 73 ± 0.84 | 72.35 ± 0.84 | 71.05 ± 0.83 | 69.69 ± 0.83 | 68.36 ± 0.82
w1 = 0.03 | 74.15 ± 0.85 | 73.57 ± 0.85 | 72.85 ± 0.84 | 71.62 ± 0.84 | 70.32 ± 0.83 | 68.95 ± 0.82
w1 = 0.04 | 75.05 ± 0.85 | 74.45 ± 0.85 | 73.7 ± 0.85 | 72.4 ± 0.84 | 71.2 ± 0.83 | 69.75 ± 0.83
w1 = 0.05 | 75.44 ± 0.86 | 74.79 ± 0.85 | 74 ± 0.85 | 72.7 ± 0.84 | 71.47 ± 0.84 | 69.98 ± 0.83
w1 = 0.06 | 76.12 ± 0.86 | 75.4 ± 0.9 | 74.75 ± 0.85 | 73.39 ± 0.85 | 72.15 ± 0.84 | 70.53 ± 0.83
w1 = 0.07 | 76.76 ± 0.86 | 76.04 ± 0.86 | 75.39 ± 0.86 | 74.09 ± 0.85 | 72.6 ± 0.84 | 70.97 ± 0.83
w1 = 0.08 | 77.23 ± 0.87 | 77.03 ± 0.86 | 76.15 ± 0.86 | 74.96 ± 0.85 | 73.86 ± 0.85 | 72.7 ± 0.84
w1 = 0.09 | 78.32 ± 0.87 | 77.68 ± 0.87 | 77.09 ± 0.86 | 75.86 ± 0.86 | 74.62 ± 0.85 | 73.19 ± 0.84
w1 = 0.1 | 79.11 ± 0.88 | 78.6 ± 0.9 | 78 ± 0.87 | 76.83 ± 0.86 | 75.66 ± 0.86 | 74.36 ± 0.85
w1 = 0.11 | 80.21 ± 0.88 | 79.5 ± 0.9 | 78.84 ± 0.87 | 77.67 ± 0.87 | 76.43 ± 0.86 | 75.26 ± 0.86
w1 = 0.12 | 81.04 ± 0.89 | 80.2 ± 0.9 | 79.51 ± 0.88 | 78.4 ± 0.87 | 77.16 ± 0.87 | 75.86 ± 0.86

[Br-].[Na+] [sodium bromide] + O
surface tension liquid-gas [mN/m]
Conditions | w1 = 0.05 | w1 = 0.1 | w1 = 0.15 | w1 = 0.2 | w1 = 0.25 | w1 = 0.3 | w1 = 0.35 | w1 = 0.4
293.15 K | 74.11 ± 0.85 | 75.5 ± 0.86 | 76.51 ± 0.86 | 77.4 ± 0.87 | 78.93 ± 0.88 | 80.32 ± 0.88 | 82 ± 0.89 | 83.5 ± 0.9
303.15 K | 72.43 ± 0.84 | 73.5 ± 0.85 | 74.83 ± 0.85 | 75.4 ± 0.86 | 77.25 ± 0.87 | 78.62 ± 0.88 | 80.31 ± 0.89 | 81.93 ± 0.89
313.15 K | 70.75 ± 0.83 | 72 ± 0.84 | 73.14 ± 0.85 | 74.1 ± 0.85 | 75.68 ± 0.86 | 77.05 ± 0.87 | 78.73 ± 0.88 | 80.36 ± 0.89
323.15 K | 69.07 ± 0.82 | 70 ± 0.83 | 71.36 ± 0.84 | 72.6 ± 0.84 | 74 ± 0.85 | 75.26 ± 0.86 | 77.05 ± 0.87 | 78.56 ± 0.88
333.15 K | 67.28 ± 0.82 | 68.4 ± 0.82 | 69.67 ± 0.83 | 70.8 ± 0.83 | 72.31 ± 0.84 | 73.6 ± 0.85 | 75.37 ± 0.86 | 76.87 ± 0.87
343.15 K | 65.49 ± 0.81 | 66.4 ± 0.81 | 67.85 ± 0.82 | 69.5 ± 0.83 | 70.52 ± 0.83 | 71.87 ± 0.84 | 73.9 ± 0.85 | 75.73 ± 0.86
353.15 K | 63.71 ± 0.8 | 64.73 ± 0.8 | 65.99 ± 0.81 | 67.34 ± 0.82 | 68.6 ± 0.82 | 70.06 ± 0.83 | 71.81 ± 0.84 | 73.32 ± 0.85

[Cl-].[Na+] [sodium chloride] + O
surface tension liquid-gas [mN/m]
Conditions | w1 = 0.025 | w1 = 0.05 | w1 = 0.075 | w1 = 0.1 | w1 = 0.125 | w1 = 0.15 | w1 = 0.175 | w1 = 0.2 | w1 = 0.225 | w1 = 0.25
293.15 K | 73.42 ± 0.85 | 74.09 ± 0.85 | 74.85 ± 0.85 | 75.6 ± 0.86 | 76.54 ± 0.86 | 77.52 ± 0.87 | 78.7 ± 0.87 | 79.82 ± 0.88 | 81.03 ± 0.89 | 81.95 ± 0.89
298.15 K | 72.63 ± 0.84 | 73.32 ± 0.85 | 74.15 ± 0.85 | 74.9 ± 0.85 | 75.8 ± 0.86 | 76.7 ± 0.86 | 77.82 ± 0.87 | 78.85 ± 0.88 | 80.32 ± 0.88 | 81.41 ± 0.89
303.15 K | 71.83 ± 0.84 | 72.56 ± 0.84 | 73.35 ± 0.85 | 74.17 ± 0.85 | 75.09 ± 0.85 | 76.11 ± 0.86 | 77.2 ± 0.87 | 78.26 ± 0.87 | 79.77 ± 0.88 | 80.8 ± 0.89
313.15 K | 70.33 ± 0.83 | 71.12 ± 0.83 | 71.95 ± 0.84 | 72.81 ± 0.84 | 73.86 ± 0.85 | 74.9 ± 0.85 | 75.98 ± 0.86 | 76.99 ± 0.87 | 78.54 ± 0.87 | 79.7 ± 0.88
323.15 K | 68.93 ± 0.82 | 69.91 ± 0.83 | 70.62 ± 0.83 | 71.32 ± 0.84 | 72.46 ± 0.84 | 73.55 ± 0.85 | 74.68 ± 0.85 | 75.71 ± 0.86 | 77.32 ± 0.87 | 78.45 ± 0.87
333.15 K | 67.21 ± 0.81 | 68.24 ± 0.82 | 69.21 ± 0.82 | 70.14 ± 0.83 | 71.18 ± 0.84 | 72.22 ± 0.84 | 73.43 ± 0.85 | 74.52 ± 0.85 | 76.01 ± 0.86 | 77.14 ± 0.87
